Data taken from patent US20240101540A1, “TARGETED PROTEIN DEGRADATION OF PARP14 FOR USE IN THERAPY” (Ribon Therapeutics, Inc., priority 2022, published 2024).
Structures can show the parent of a compound that is named as a salt.

Each compound was assayed against T1, catalytic domain of human PARP14 (residues 1611 to 1801) with NanoLuc tag (Homo sapiens, UniProt Q460N5) (assay: NanoLuc assay for the degradation of PARP14 (NanoLuc-tagged PARP14 overexpressed in HEK-293T cells, 2 hours)). Conditions: Assay A (Example A): NanoLuc-tagged PARP14 degradation in HEK-293T cells, read-out: DC50.
T1 construct: expressed in transfected cells; host or cells: HEK-293T cells (ATCC), pcDNA3.1(-) vector
T1 sequence (Q460N5 1611-1801): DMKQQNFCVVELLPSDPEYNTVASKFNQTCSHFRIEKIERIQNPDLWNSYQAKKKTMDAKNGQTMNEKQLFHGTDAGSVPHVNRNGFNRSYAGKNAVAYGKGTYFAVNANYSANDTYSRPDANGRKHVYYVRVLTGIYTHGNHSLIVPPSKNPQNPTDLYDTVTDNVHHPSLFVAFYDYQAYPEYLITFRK
Format: cell-based
Method: The insert also contained a NanoLuc tag on the N terminus of the PARP14 protein.
Degradation of PARP14 protein was assessed using measurement of the NanoLuc tag as proxy for the PARP14 protein. […] Plasmid DNA was diluted in empty vector DNA then added to 1.163 mL of phenol red free OptiMEM (Thermo Fisher). Plasmid DNA concentrations used in each assay described in Table 1. The plasmid DNA was mixed with 78.5 μL of Fugene HD (Promega) and allowed to incubate 5 minutes.
The transfection was incubated for 24 hrs at 37 degrees in an incubator supplemented with 5% CO2. The cells were then trypsinized and brought up in phenol red free OptiMEM media. […] 40 nL of a dose response curve diluted in DMSO of each test compound was added to the cell plate using a Mosquito (TTP Labtech) and the plate was incubated at 37° C. for 2 hours. Assay plate was brought to room temperature then 20 μL per well of NanoGlo (Promega) was added to the plate. Luminescence was measured on an Envision (Perkin Elmer).
The average DMSO was calculated from 32 wells containing 0.1% DMSO only in columns 12 and 24 of the assay plate. The % of DMSO values were calculated as described below: […]
The % of DMSO values were plotted as a function of compound concentration and the following 4-parameter fit was applied to derive the DC50 values:
where top, bottom, and Hill Coefficient are allowed to float. Y is the % of DMSO and X is the compound concentration
DC50 data for the Example compounds is provided below in Table 2 (“+” is <0.1 μM; “++” is ≥0.1 μM and <1 μM; and “+++” is ≥1 μM).

| DC50 [nM] | Structure (SMILES) |
| --- | --- |
| < 100 | O=C(CN1CCC(COc2cc(F)c3c(=O)[nH]c(CSC4CCOCC4)nc3c2)CC1)NCCOCCCNc1cccc2c1C(=O)N(C1CCC(=O)NC1=O)C2=O (centres unmarked) [Example 13, N-(2-(3-((2-(2,6-dioxopiperidin-3-yl)-1,3-dioxoisoindolin-4-yl)amino)propoxy)ethyl)-2-(4-(((5-fluoro-4-oxo-2-(((tetrahydro-2H-pyran-4-yl)thio)methyl)-3,4-dihydroquinazolin-7-yl)oxy)methyl)piperidin-1-yl)acetamide] |
| < 100 | O=C1CCC(N2C(=O)c3ccc(NCC(=O)N4CCC(COc5cc(F)c6c(=O)[nH]c(CSC7CCOCC7)nc6c5)CC4)cc3C2=O)C(=O)N1 (centres unmarked) [Example 14, 2-(2,6-dioxopiperidin-3-yl)-5-((2-(4-(((5-fluoro-4-oxo-2-(((tetrahydro-2H-pyran-4-yl)thio)methyl)-3,4-dihydroquinazolin-7-yl)oxy)methyl)piperidin-1-yl)-2-oxoethyl)amino)isoindoline-1,3-dione] |
| < 100 | O=C1CCC(N2C(=O)c3ccc(N4CCN(CC5CCN(C(=O)CN6CCC(COc7cc(F)c8c(=O)[nH]c(CSC9CCOCC9)nc8c7)CC6)CC5)CC4)cc3C2=O)C(=O)N1 (centres unmarked) [Example 15, 2-(2,6-dioxopiperidin-3-yl)-5-(4-((1-(2-(4-(((5-fluoro-4-oxo-2-(((tetrahydro-2H-pyran-4-yl)thio)methyl)-3,4-dihydroquinazolin-7-yl)oxy)methyl)piperidin-1-yl)acetyl)piperidin-4-yl)methyl)piperazin-1-yl)isoindoline-1,3-dione formate] |
| < 100 | O=C1CCC(Nc2ccc(C(=O)N3CCC(COc4cc(F)c5c(=O)[nH]c(CSC6CCOCC6)nc5c4)CC3)cc2)C(=O)N1 (centres unmarked) [Example 16, 3-((4-(4-(((5-fluoro-4-oxo-2-(((tetrahydro-2H-pyran-4-yl)thio)methyl)-3,4-dihydroquinazolin-7-yl)oxy)methyl)piperidine-1-carbonyl)phenyl)amino)piperidine-2,6-dione] |
| < 100 | O=C1CCC(N2Cc3c(cccc3N3CCN(CC4CCN(C(=O)CN5CCC(COc6cc(F)c7c(=O)[nH]c(CSC8CCOCC8)nc7c6)CC5)CC4)CC3)C2=O)C(=O)N1 (centres unmarked) [Example 17, 3-(4-(4-((1-(2-(4-(((5-fluoro-4-oxo-2-(((tetrahydro-2H-pyran-4-yl)thio)methyl)-3,4-dihydroquinazolin-7-yl)oxy)methyl)piperidin-1-yl)acetyl)piperidin-4-yl)methyl)piperazin-1-yl)-1-oxoisoindolin-2-yl)piperidine-2,6-dione] |
| < 100 | O=C1CCC(Nc2ccc(C3CCN(CC4CCN(C(=O)CN5CCC(COc6cc(F)c7c(=O)[nH]c(CSC8CCOCC8)nc7c6)CC5)CC4)CC3)cc2)C(=O)N1 (centres unmarked) [Example 18, 3-((4-(1-((1-(2-(4-(((5-fluoro-4-oxo-2-(((tetrahydro-2H-pyran-4-yl)thio)methyl)-3,4-dihydroquinazolin-7-yl)oxy)methyl)piperidin-1-yl)acetyl)piperidin-4-yl)methyl)piperidin-4-yl)phenyl)amino)piperidine-2,6-dione] |
| < 100 | O=C1CCN(c2ccc(C3CCN(CC4CCN(C(=O)CN5CCC(COc6cc(F)c7c(=O)[nH]c(CSC8CCOCC8)nc7c6)CC5)CC4)CC3)cc2)C(=O)N1 [Example 19, 1-(4-(1-((1-(2-(4-(((5-fluoro-4-oxo-2-(((tetrahydro-2H-pyran-4-yl)thio)methyl)-3,4-dihydroquinazolin-7-yl)oxy)methyl)piperidin-1-yl)acetyl)piperidin-4-yl)methyl)piperidin-4-yl)phenyl)dihydropyrimidine-2,4(1H,3H)-dione] |
| < 100 | O=C1CCC(N2C(=O)c3cccc(N4CCC(CN5CCC(C(=O)N6CCC(COc7cc(F)c8c(=O)[nH]c(CSC9CCOCC9)nc8c7)CC6)CC5)CC4)c3C2=O)C(=O)N1 (centres unmarked) [Example 20, 2-(2,6-dioxopiperidin-3-yl)-4-(4-((4-(4-(((5-fluoro-4-oxo-2-(((tetrahydro-2H-pyran-4-yl)thio)methyl)-3,4-dihydroquinazolin-7-yl)oxy)methyl)piperidine-1-carbonyl)piperidin-1-yl)methyl)piperidin-1-yl)isoindoline-1,3-dione] |
| < 100 | O=C1CCC(N2C(=O)c3cccc(N4CCN(CC5CCN(C(=O)CN6CCC(COc7cc(F)c8c(=O)[nH]c(CSC9CCOCC9)nc8c7)CC6)CC5)CC4)c3C2=O)C(=O)N1 (centres unmarked) [Example 21, 2-(2,6-dioxopiperidin-3-yl)-4-(4-((1-(2-(4-(((5-fluoro-4-oxo-2-(((tetrahydro-2H-pyran-4-yl)thio)methyl)-3,4-dihydroquinazolin-7-yl)oxy)methyl)piperidin-1-yl)acetyl)piperidin-4-yl)methyl)piperazin-1-yl)isoindoline-1,3-dione] |
| < 100 | O=C1CCC(N2C(=O)c3cccc(NCCOCC(=O)N4CCC(COc5cc(F)c6c(=O)[nH]c(CSC7CCOCC7)nc6c5)CC4)c3C2=O)C(=O)N1 (centres unmarked) [Example 22, 2-(2,6-dioxopiperidin-3-yl)-4-((2-(2-(4-(((5-fluoro-4-oxo-2-(((tetrahydro-2H-pyran-4-yl)thio)methyl)-3,4-dihydroquinazolin-7-yl)oxy)methyl)piperidin-1-yl)-2-oxoethoxy)ethyl)amino)isoindoline-1,3-dione] |
| < 100 | O=C1CCC(N2C(=O)c3ccc(N4CCC(COc5cc(F)c6c(=O)[nH]c(CSC7CCOCC7)nc6c5)CC4)cc3C2=O)C(=O)N1 (centres unmarked) [Example 23, 2-(2,6-dioxopiperidin-3-yl)-5-(4-(((5-fluoro-4-oxo-2-(((tetrahydro-2H-pyran-4-yl)thio)methyl)-3,4-dihydroquinazolin-7-yl)oxy)methyl)piperidin-1-yl)isoindoline-1,3-dione] |
| < 100 | O=C1CCC(N2C(=O)c3cccc(N4CCC(COc5cc(F)c6c(=O)[nH]c(CSC7CCOCC7)nc6c5)CC4)c3C2=O)C(=O)N1 (centres unmarked) [Example 24, 2-(2,6-dioxopiperidin-3-yl)-4-(4-(((5-fluoro-4-oxo-2-(((tetrahydro-2H-pyran-4-yl)thio)methyl)-3,4-dihydroquinazolin-7-yl)oxy)methyl)piperidin-1-yl)isoindoline-1,3-dione] |
| < 100 | O=C1CCC(N2C(=O)c3ccc(NC(=O)CN4CCC(COc5cc(F)c6c(=O)[nH]c(CSC7CCOCC7)nc6c5)CC4)cc3C2=O)C(=O)N1 (centres unmarked) [Example 25, N-(2-(2,6-dioxopiperidin-3-yl)-1,3-dioxoisoindolin-5-yl)-2-(4-(((5-fluoro-4-oxo-2-(((tetrahydro-2H-pyran-4-yl)thio)methyl)-3,4-dihydroquinazolin-7-yl)oxy)methyl)piperidin-1-yl)acetamide] |
| < 100 | O=C1CCC(N2C(=O)c3cccc(NC(=O)CN4CCC(COc5cc(F)c6c(=O)[nH]c(CSC7CCOCC7)nc6c5)CC4)c3C2=O)C(=O)N1 (centres unmarked) [Example 26, N-(2-(2,6-dioxopiperidin-3-yl)-1,3-dioxoisoindolin-4-yl)-2-(4-(((5-fluoro-4-oxo-2-(((tetrahydro-2H-pyran-4-yl)thio)methyl)-3,4-dihydroquinazolin-7-yl)oxy)methyl)piperidin-1-yl)acetamide] |
| < 100 | O=C1CCC(N2C(=O)c3ccc(C#CCN4CCC(COc5cc(F)c6c(=O)[nH]c(CSC7CCOCC7)nc6c5)CC4)cc3C2=O)C(=O)N1 (centres unmarked) [Example 27, 2-(2,6-dioxopiperidin-3-yl)-5-(3-(4-(((5-fluoro-4-oxo-2-(((tetrahydro-2H-pyran-4-yl)thio)methyl)-3,4-dihydroquinazolin-7-yl)oxy)methyl)piperidin-1-yl)prop-1-yn-1-yl)isoindoline-1,3-dione] |
| < 100 | O=C1CCC(N2C(=O)c3cccc(C#CCN4CCC(COc5cc(F)c6c(=O)[nH]c(CSC7CCOCC7)nc6c5)CC4)c3C2=O)C(=O)N1 (centres unmarked) [Example 28, 2-(2,6-dioxopiperidin-3-yl)-4-(3-(4-(((5-fluoro-4-oxo-2-(((tetrahydro-2H-pyran-4-yl)thio)methyl)-3,4-dihydroquinazolin-7-yl)oxy)methyl)piperidin-1-yl)prop-1-yn-1-yl)isoindoline-1,3-dione] |
| < 100 | O=C1CCC(N2Cc3cc(C#CCN4CCC(COc5cc(F)c6c(=O)[nH]c(CSC7CCOCC7)nc6c5)CC4)ccc3C2=O)C(=O)N1 (centres unmarked) [Example 29, 3-(5-(3-(4-(((5-fluoro-4-oxo-2-(((tetrahydro-2H-pyran-4-yl)thio)methyl)-3,4-dihydroquinazolin-7-yl)oxy)methyl)piperidin-1-yl)prop-1-yn-1-yl)-1-oxoisoindolin-2-yl)piperidine-2,6-dione] |
